According to US20200390909A1, “DRUG FRAGMENT IMAGING AGENT CONJUGATES” (The Board of Trustees of the Leland Stanford Junior …, priority 2018, published 2020):

Columns and labels:
breast tumor = experiment: NIRF imaging of breast tumor after oral gavage of systemic functional dye; type: in vivo, mouse
Method: FIG. 6A-6D. Highlighting a breast tumor following oral administration of an exemplary systemic functional dye (Compound (8), SU780). FIG. 6A NIRF imaging of the intact mouse 24 h post oral gavage of SU780.
A wild type with an unidentified spontaneous flank tumor received an oral gavage of Compound (8) (SU780) (0.4 mg/kg). The following day, the animal was sacrificed, and the tumor was subjected to NIRF imaging.
Shown in FIG. 6 is the highlighting of a breast tumor following oral administration of the systemic functional dye Compound (8) (SU780).

[1] = systemically administered, clinical optical contrast agent; cited from earlier work

SMILES | localisation in H&E processed tumor section (breast tumor; after tissue processing for H&E) | fluorescence of residual tumor tissue in resection bed (image-guided resection) (breast tumor; after tumor resection, oral gavage) | highlighting of tumor by NIRF imaging after oral administration (breast tumor; mouse with spontaneous flank (breast) tumor, oral gavage 0.4 mg/kg, following day, resected tumor) | NIRF signal at tumor margin / tumor infiltration into normal tissue (tissue section) (breast tumor; oral gavage 0.4 mg/kg, 0.4 mg/kg) | NIRF signal at tumor margin / tumor infiltration into normal tissue (tissue section) (breast tumor; oral gavage 0.4 mg/kg, listed as SU780, 0.4 mg/kg) | TBR [1]
CCCN1/C(=C/C=C2\CCCC(/C=C/C3=[N+](CCC)c4ccccc4C3(C)C)=C2Nc2ccc(NC(=O)CN3CCOCC3)cc2)C(C)(C)c2ccccc21 [Compound (8)] | highlights mainly epithelial cancer cells | residual tumor tissue was fluorescing in the resection bed | highlights the tumor | perfect correlation with tumor infiltration into normal tissues | highlights the finger-like infiltration of the breast cancer cells into normal mammary fat pad | 
CC1(C)C(/C=C/C2=C(Oc3ccc(C[C@H](NC(=O)c4ccc(NCc5cnc6nc(N)[nH]c(=O)c6n5)cc4)C(=O)[O-])cc3)C(=C/C=C3\N(CCCCS(=O)(=O)[O-])c4ccc(S(=O)(=O)[O-])cc4C3(C)C)/CCC2)=[N+](CCCCS(=O)(=O)[O-])c2ccc(S(=O)(=O)[O-])cc21.[H+].[H+].[H+].[H+] [OTL38] |  |  |  |  |  | 4.4
